# Measurements as given in paper PMC12914960, “Repurposing a detrimental antibody epitope as targeted therapeutics for sepsis and rheumatoid arthritis” (Military Medical Research, 2026).
# Where “and” joins values, the source holds several entries; their conditions need not be identical. Equal entries are not always repeated. Where a SMILES comes first, the peptide text is derived from it.
# Experiments:
# [1] = system: CLP-induced serum cytokines and chemokines; assay: Serum cytokines/chemokines after CLP, murine cytokine antibody arrays; assay type: in vivo, mouse; parameters: BLC / G-CSF / GM-CSF / IL-6 / KC / MCP-1 / MIP-2 / MIP-1 gama / PF-4 / sTNF-RI: unit not given here; details: for BLC / G-CSF / GM-CSF / IL-6 / KC / MCP-1 / MIP-1 gama / MIP-2 / PF-4 / sTNF-RI: serum 24 h, individual values
# Procedure: Experimental sepsis was induced in BALB/c mice via CLP as previously described. […] The animals were randomly assigned to the control vehicle (n = 10 or n = 20) or experimental groups (n = 10 or n = 20). P2 (5.0 mg/kg), P2-1 (0.1 mg/kg or 1.0 mg/kg), or tetranectin N-terminal deletion mutant (ΔTN) (1.0 mg/kg) were administered intraperitoneally (i.p.) at the indicated time points, and survival rates were monitored. To elucidate P2-1’s protective mechanisms, a separate group of BALB/c mice (n = 4) underwent CLP and received P2-1 (1.0 mg/kg) at 2 h and 20 h post-CLP. At 24 h post-CLP, the animals were euthanized, blood was collected, and serum cytokines and chemokines were measured via murine cytokine antibody arrays as previously described. More details are presented in Additional file 1: Methods.
# The levels of cytokines and chemokines in mouse serum and joint tissue lysates, or human PBMC culture supernatants, were determined via murine or human cytokine antibody arrays (e.g., Cat. #AAM-CYM-3–8 or Cat. #AAH-CYT-3–8, RayBiotech Inc., Norcross, GA, USA) as previously described. For the sepsis model, blood samples were collected from the mice (n = 4) at 24 h post-CLP. For the CAIA model, soft tissues from the hindpaw and ankle joints were carefully harvested from normal (n = 2) and CAIA (n = 4) mice using a previously established protocol. Briefly, 0.5 g of fresh soft tissue was cut into 3 mm pieces and mixed with 400 µl of a hypertonic solution (500 ml of PBS with 4.5 g of NaCl and 2 × protease inhibitor cocktail) in a 10 ml syringe. Mechanical extrusion, involving 30 rapid back-and-forth movements of the plunger, was then performed. The expelled extracellular fluid was collected, immediately aliquoted, and stored at −20 °C until analysis. Cell-conditioned medium was collected from PBMC cultures after 16 h of stimulation. Arrays were performed according to the manufacturer’s protocol, followed by chemiluminescent detection and densitometric quantification as previously described.
# BALB/c mice subjected to CLP-induced sepsis received P2-1 (0.1 or 1.0 mg/kg) intraperitoneally twice, at 2 h and 20 h post-CLP. At 24 h post-CLP, the animals were sacrificed, and blood was harvested for cytokine and chemokine measurements via cytokine antibody arrays. ^*P < 0.05 vs. the negative control (“- CLP”); ^#P < 0.05 vs. the positive control (“ + CLP”) group, non-parametric Kruskal-Wallis ANOVA test. CLP cecal ligation and puncture, BLC B-lymphocyte chemoattractant, CCL C–C motif chemokine ligand, CXCL C-X-C motif chemokine ligand, IL interleukin, G-CSF granulocyte colony-stimulating factor, KC keratinocyte-derived chemokine, GRO growth-regulated oncogene, MIP macrophage inflammatory protein, PF platelet factor, sTNFR soluble tumor necrosis factor receptor
# [2] = system: Differentiated human macrophages; assay: HMGB1-induced macrophage death, LDH release; assay type: cell-based; parameters: key: % of maximal LDH release (2% Triton X-100); details: 16 h, percentage of maximal release (2% Triton X-100) per method, individual replicates
# Procedure: Human macrophage differentiation and treatment
# Human PBMCs were differentiated into macrophages by culturing in human macrophage colony-stimulating factor (M-CSF, 20 ng/ml) for 5 – 6 d. Differentiated macrophages were maintained in Dulbecco’s modified Eagle’s medium supplemented with 1% penicillin/streptomycin and 10% human serum. Upon reaching 70 – 80% conflu ence, adh erent cells were wash ed and switched to Opti-MEM I before stimulation with recombinant HMGB1 (0.5 µg/ml) with or without P2- 1 (5.0 or 10 µg/ml) for 16 […]
# Cell viability was assessed via the tryp an blue excl usion and lactat e dehyd ro genase (LDH) release method as previously described . For trypan blue exclusion, random phase-contr ast images were captur ed , and the percentage of nonviable, trypan blue-stained cells was calculated. LDH release in the culture medium was quantified with an LDH Ass ay Kit (Cat. #L7572, Pointe Scientific Inc., Canton, MI, USA) according to the manufacturer ’s instructions. Optical density was measured at 340 nm, and LDH content was expressed as a per centag e of maximal release in the presence of 2% Triton X-100. The experiments were performed 5 – 7 times ( n= 5 –7 biological replicates). […]
# [3] = CLP + P2-1 0.1 mg/kg, 0.1 mg/kg
compound,measurement,setting,value
CCCC[C@H](NC(=O)[C@H](Cc1c[nH]cn1)NC(=O)[C@@H](NC(=O)[C@H](CCCCN)NC(=O)[C@@H](N)[C@@H](C)O)C(C)C)C(=O)N[C@@H](CCCCN)C(=O)N[C@@H](CO)C(=O)N[C@@H](Cc1ccccc1)C(=O)N[C@@H](CC(C)C)C(=O)N[C@@H](C)C(=O)N[C@@H](Cc1ccccc1)C(=O)N[C@@H](CCC(N)=O)C(=O)N[C@H](C(=O)N[C@@H](CCCCN)C(=O)N[C@H](C(=O)O)[C@@H](C)O)[C@@H](C)O [P2-1] (HELM PEPTIDE1{T.K.V.H.[Nle].K.S.F.L.A.F.Q.T.K.T}$$$$V2.0; N-terminus and C-terminus assumed),BLC,"[1]; CLP + P2-1 0.1 mg/kg i.p. 2 h and 20 h post-CLP, 0.1 mg/kg",257.4 and 202.1 and 204.2 and 224.3
same,G-CSF,[1]; [3],161.4 and 173.4 and 290.4 and 305.7
same,GM-CSF,[1]; [3],23.2 and 56 and 52.8 and 13.6
same,IL-6,[1]; [3],59.36 and 56.19 and 57.95 and 55.32
same,KC,[1]; [3],128.7 and 116.3 and 31.9 and 105.9
same,MCP-1,[1]; [3],25.4 and 25.6 and 31.2 and 21.8
same,MIP-1 gama,[1]; [3],280.3 and 263.7 and 278.8 and 275.6
same,MIP-2,[1]; [3],203.2 and 193.1 and 174.2 and 159.2
same,PF-4,[1]; [3],302.3 and 268.3 and 285.4 and 298.4
same,sTNF-RI,[1]; [3],143.4 and 116.1 and 179.9 and 149.3
same,BLC,"[1]; CLP + P2-1 1.0 mg/kg i.p. 2 h and 20 h post-CLP, 1 mg/kg",42.8 and 33.1 and 30.9 and 35.4
same,G-CSF,"[1]; CLP + P2-1 1.0 mg/kg, 1 mg/kg",111.9 and 128.7 and 120.4 and 100.4
same,GM-CSF,"[1]; CLP + P2-1 1.0 mg/kg, 1 mg/kg",0.79 and 1.5 and 1.2 and 3.4
same,IL-6,"[1]; CLP + P2-1 1.0 mg/kg, 1 mg/kg",16.8 and 16.2 and 14.3 and 20.4
same,KC,"[1]; CLP + P2-1 1.0 mg/kg, 1 mg/kg",151.9 and 155 and 10.5 and 15.5
same,MCP-1,"[1]; CLP + P2-1 1.0 mg/kg, 1 mg/kg",6.8 and 7.9 and 7.4 and 5.2
same,MIP-1 gama,"[1]; CLP + P2-1 1.0 mg/kg, 1 mg/kg",128.6 and 137.5 and 54.5 and 68.8
same,MIP-2,"[1]; CLP + P2-1 1.0 mg/kg, 1 mg/kg",172.1 and 177.3 and 14.9 and 12.4
same,PF-4,"[1]; CLP + P2-1 1.0 mg/kg, 1 mg/kg",109.2 and 118.3 and 114.4 and 64.9
same,sTNF-RI,"[1]; CLP + P2-1 1.0 mg/kg, 1 mg/kg",21.5 and 32.7 and 198.2 and 143.4
same,"sepsis-induced systemic cytokines/chemokines, in words","[1]; P2-1 i.p. at 2 h and 20 h post-CLP, blood at 24 h, BLC, G-CSF, IL-6, KC, MIP-1γ, MIP-2, PF-4, sTNFRI",significantly reduced sepsis-induced systemic accumulation
same,LDH release,[2]; HMGB1 0.5 µg/ml + P2-1 5.0 μg/ml,2.7008 and 6.752 and 2.4476 and 4.642 and 0.844 and 5.6548
same,LDH release,[2]; HMGB1 0.5 µg/ml + P2-1 10.0 μg/ml,1.0128 and 2.532 and 6.752 and 3.376 and 5.4016 and 2.6164 and 1.1816
